Experimental data reported in patent US7393848B2, “Certain heterocyclic substituted imidazo[1,2-A]pyrazin-8-ylamines and methods of inhibition of Bruton's tyrosine kinase by such compounds” (CGI Pharmaceuticals, Inc., priority 2003, dated 2008).

Target: T1, full length human wildtype Btk (Homo sapiens, UniProt Q06187)
T1 construct: V5 (C); 6xHis (C); made in house; host or cells: Sf9 insect cells (baculovirus, pFastBac / Bac-to-Bac)
Assay: Biochemical Btk Assay (time-resolved fluorescence kinase assay)
Conditions: 40 μM ATP, 1 hour at room temperature; read-out: IC50 value in the Btk biochemical assay of Example 7
Protocol: A generalized procedure for one standard biochemical Btk Kinase Assay used to test compounds disclosed in this application is as follows.
A master mix minus Btk enzyme is prepared containing 1× Cell Signaling kinase buffer (25 mM Tris-HCl, pH 7.5, 5 mM […]-glycerophosphate, 2 mM dithiothreitol, 0.1 mM Na3VO4, 10 mM MgCl2), 0.5 μM Promega PTK Biotinylated peptide substrate 2, and 0.01% BSA. A master mix plus Btk enzyme is prepared containing 1× Cell Signaling kinase buffer, 0.5 μM PTK Biotinylated peptide substrate 2, 0.01% BSA, and 100 ng/well (0.06 mU/well) Btk enzyme. Btk enzyme is prepared as follows: full length human wildtype Btk (accession number NM-000061) with a C-terminal V5 and 6× His tag was subcloned into pFastBac vector for making baculovirus carrying this epitope-tagged Btk. […] A quantity of 1.25 μL of compounds in 5% DMSO is transferred to a 96-well ½ area Costar polystyrene plate. […] A quantity of 18.75 μL of master mix minus enzyme (as a negative control) and master mix plus enzyme is transferred to appropriate wells in 96-well ½ area costar polystyrene plate. […] The plate is read using time-resolved fluorescence with a Perkin Elmer Envision using excitation filter 330 nm, emission filter 665 nm, and 2nd emission filter 615 nm. IC50 values are subsequently calculated.

T1 sequence (Q06187 whole entry): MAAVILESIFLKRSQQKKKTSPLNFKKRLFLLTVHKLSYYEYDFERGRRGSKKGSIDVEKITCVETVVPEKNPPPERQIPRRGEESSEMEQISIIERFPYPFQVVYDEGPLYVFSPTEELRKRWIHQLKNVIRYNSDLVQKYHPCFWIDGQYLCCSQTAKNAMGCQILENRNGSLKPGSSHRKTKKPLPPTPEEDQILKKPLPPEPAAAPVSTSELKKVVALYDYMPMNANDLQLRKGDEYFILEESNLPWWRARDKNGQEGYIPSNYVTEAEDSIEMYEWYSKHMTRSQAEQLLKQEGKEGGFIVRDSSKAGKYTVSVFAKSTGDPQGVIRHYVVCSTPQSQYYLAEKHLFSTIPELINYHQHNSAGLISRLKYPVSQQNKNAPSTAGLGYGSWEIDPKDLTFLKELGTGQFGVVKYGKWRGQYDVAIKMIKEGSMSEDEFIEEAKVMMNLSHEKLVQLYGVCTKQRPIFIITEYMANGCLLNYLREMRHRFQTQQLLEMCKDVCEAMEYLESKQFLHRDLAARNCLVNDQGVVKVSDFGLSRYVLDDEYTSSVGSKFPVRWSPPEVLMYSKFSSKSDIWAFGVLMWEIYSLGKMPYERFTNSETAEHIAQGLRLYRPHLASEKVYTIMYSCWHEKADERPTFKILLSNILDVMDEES

IC50: < 1000 nM
Compound: CC(C)(C)c1ccc(C(=O)Nc2cccc(-c3cn4ccnc4c(Nc4ccc5[nH]ncc5c4)n3)c2)cc1 [Example 6]
